Reference: ChEMBL document CHEMBL5137006, “Synthesis and Characterization of Transition-State Analogue Inhibitors against Human DNA Methyltransferase 1” (J Med Chem, 2022)
Activity calls are given as the source filed them. No cut-off for these calls is given here.

Legend:
[1] = target: T1, DNA (cytosine-5)-methyltransferase 1 (Homo sapiens, UniProt P26358); assay: Inhibition of human recombinant full-length DNMT1 expressed in Sf9 cells assessed as inhibition of methylated dI-dC formation using poly dI-dC and [Me-3H]SAM as substrate incubated for 2 hrs by liquid scintillation counting analysis
[2] = target: T1, DNA (cytosine-5)-methyltransferase 1; assay: (§1) Inhibition of human C-terminal domain DNMT1 catalytic domain (351 to 1600 residues) expressed in Escherichia coli BL21-CodonPlus (DE3)-RIL cells assessed as inhibition of methylated dI-dC formation using 25 ug/ml poly dI-dC and [Me-3H]SAM as substrate incubated for 2 hrs by liquid scintillation counting analysis
[3] = target: T1, DNA (cytosine-5)-methyltransferase 1; assay: as §1, with “using” for “using 25 ug/ml”, “and 12 uM” for “and”
[4] = target: T1, DNA (cytosine-5)-methyltransferase 1; assay: as §1, with “1” for “25”
[5] = target: T1, DNA (cytosine-5)-methyltransferase 1; assay: as §1, with “5” for “25”
[6] = target: T1, DNA (cytosine-5)-methyltransferase 1; assay: as §1, with “using” for “using 25 ug/ml”, “and 1 uM” for “and”
[7] = target: T1, DNA (cytosine-5)-methyltransferase 1; assay: Binding affinity to human C-terminal domain DNMT1 catalytic domain ([…] residues) expressed in Escherichia coli BL21-CodonPlus (DE3)-RIL cells by ultrafiltration binding assay
[8] = target: T1, DNA (cytosine-5)-methyltransferase 1; assay: as §1, with “using” for “using 25 ug/ml”, “and 6 uM” for “and”
[9] = target: T1, DNA (cytosine-5)-methyltransferase 1; assay: as §1, with “using” for “using 25 ug/ml”, “and 8 uM” for “and”
[10] = target: T1, DNA (cytosine-5)-methyltransferase 1; assay: Inhibition of DNMT1 in human HT-29 cells assessed as reduction of 5-methylcytosine in cellular DNA at 100 uM incubated for 96 hrs by nLC-MS analysis; format: cell-based

T1 sequence (P26358 whole entry, the tested form may be a part): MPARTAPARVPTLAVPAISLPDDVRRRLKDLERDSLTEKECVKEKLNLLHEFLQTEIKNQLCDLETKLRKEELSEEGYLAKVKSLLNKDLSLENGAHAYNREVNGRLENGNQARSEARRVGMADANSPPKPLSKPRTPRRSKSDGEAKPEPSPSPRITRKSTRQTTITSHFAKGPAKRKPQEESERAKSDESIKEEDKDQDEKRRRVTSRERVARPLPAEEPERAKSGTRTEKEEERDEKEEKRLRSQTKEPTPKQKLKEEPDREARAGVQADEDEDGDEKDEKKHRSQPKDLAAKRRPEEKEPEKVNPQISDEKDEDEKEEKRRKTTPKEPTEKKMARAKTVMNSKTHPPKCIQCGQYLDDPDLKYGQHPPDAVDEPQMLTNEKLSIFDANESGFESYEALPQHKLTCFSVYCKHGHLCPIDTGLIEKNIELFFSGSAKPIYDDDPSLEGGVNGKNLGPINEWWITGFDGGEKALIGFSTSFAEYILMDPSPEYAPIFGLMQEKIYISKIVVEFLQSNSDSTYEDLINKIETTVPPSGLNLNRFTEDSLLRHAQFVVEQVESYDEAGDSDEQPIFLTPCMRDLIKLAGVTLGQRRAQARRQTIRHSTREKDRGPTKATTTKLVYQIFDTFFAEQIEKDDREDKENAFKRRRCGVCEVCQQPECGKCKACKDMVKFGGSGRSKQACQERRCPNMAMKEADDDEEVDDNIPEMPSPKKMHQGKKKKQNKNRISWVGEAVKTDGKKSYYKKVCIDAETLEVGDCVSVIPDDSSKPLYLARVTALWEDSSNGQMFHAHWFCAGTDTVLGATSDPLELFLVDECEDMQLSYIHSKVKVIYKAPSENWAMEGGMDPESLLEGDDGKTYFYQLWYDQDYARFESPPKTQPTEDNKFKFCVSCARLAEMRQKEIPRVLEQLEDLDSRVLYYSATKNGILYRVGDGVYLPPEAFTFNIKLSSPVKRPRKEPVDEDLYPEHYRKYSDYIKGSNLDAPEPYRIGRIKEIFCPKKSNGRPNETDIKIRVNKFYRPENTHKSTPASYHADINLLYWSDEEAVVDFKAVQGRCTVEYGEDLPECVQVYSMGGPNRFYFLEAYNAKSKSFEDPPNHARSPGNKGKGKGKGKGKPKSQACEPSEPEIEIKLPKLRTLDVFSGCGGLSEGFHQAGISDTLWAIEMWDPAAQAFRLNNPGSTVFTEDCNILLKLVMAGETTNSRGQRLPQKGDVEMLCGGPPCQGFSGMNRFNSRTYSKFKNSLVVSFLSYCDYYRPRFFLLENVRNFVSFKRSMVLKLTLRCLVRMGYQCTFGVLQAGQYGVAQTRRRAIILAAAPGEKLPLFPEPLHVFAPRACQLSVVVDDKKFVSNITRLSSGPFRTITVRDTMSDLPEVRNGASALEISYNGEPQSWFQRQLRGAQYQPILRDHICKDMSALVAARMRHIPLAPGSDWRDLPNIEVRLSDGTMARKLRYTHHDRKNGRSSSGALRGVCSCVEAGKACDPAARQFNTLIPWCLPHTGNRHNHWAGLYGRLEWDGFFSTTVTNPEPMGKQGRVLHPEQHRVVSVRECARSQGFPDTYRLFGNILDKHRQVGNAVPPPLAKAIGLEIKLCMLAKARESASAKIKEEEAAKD

SMILES | IC50 [1] [µM] | also measured
Nc1nc(=O)n([C@H]2C[C@H](O)[C@@H](CO)O2)cc1CCN(CC[C@H](N)C(=O)O)C[C@H]1O[C@@H](n2cnc3c(N)ncnc32)[C@H](O)[C@@H]1O | 10.3 | 
Nc1nc(=O)n([C@H]2C[C@H](O)[C@@H](CO)O2)cc1CNCCCC[C@H](N)C(=O)O | 2.7 | 
Nc1nc(=O)n([C@H]2C[C@H](O)[C@@H](CO)O2)cc1CSC[C@H]1O[C@@H](n2cnc3c(N)ncnc32)[C@H](O)[C@@H]1O | > 100 | 
Nc1nc(=O)n([C@H]2C[C@H](O)[C@@H](CO)O2)cc1CSCC[C@H](N)C(=O)O | 7.2 | 
Nc1nc(=O)n([C@H]2C[C@H](O)[C@@H](CO)O2)cc1CCCSC[C@H]1O[C@@H](n2cnc3c(N)ncnc32)[C@H](O)[C@@H]1O | > 100 | 
Nc1nc(=O)n([C@H]2C[C@H](O)[C@@H](CO)O2)cc1CCCN(CC[C@H](N)C(=O)O)C[C@H]1O[C@@H](n2cnc3c(N)ncnc32)[C@H](O)[C@@H]1O | 2.9 | 
Nc1nc(=O)n([C@H]2C[C@H](O)[C@@H](CO)O2)cc1CCCNC[C@H]1O[C@@H](n2cnc3c(N)ncnc32)[C@H](O)[C@@H]1O | 10.3 | 
Nc1nc(=O)n([C@H]2C[C@H](O)[C@@H](CO)O2)cc1CNCC(CC[C@H](N)C(=O)O)C[C@H]1O[C@@H](n2cnc3c(N)ncnc32)[C@H](O)[C@@H]1O (stereo not given in full) | 1.2 | IC50 [2]: 5.4 µM; IC50 [3]: 8.7 µM; IC50 [4]: 4 µM; IC50 [5]: 5.1 µM; IC50 [6]: 3.5 µM; Kd [7]: 7.3 µM; IC50 [8]: 6.1 µM; IC50 [9]: 6.7 µM
Nc1nc(=O)n([C@H]2C[C@H](O)[C@@H](CO)O2)cc1CCSC[C@H]1O[C@@H](n2cnc3c(N)ncnc32)[C@H](O)[C@@H]1O | > 100 | 
Nc1nc(=O)n([C@H]2C[C@H](O)[C@@H](CO)O2)cc1CSCCCC[C@H](N)C(=O)O | 1.1 | 
Nc1nc(=O)n([C@H]2C[C@H](O)[C@@H](CO)O2)cc1SCCN(CC[C@H](N)C(=O)O)C[C@H]1O[C@@H](n2cnc3c(N)ncnc32)[C@H](O)[C@@H]1O | 3.6 | 
Nc1nc(=O)n([C@H]2C[C@H](O)[C@@H](CO)O2)cc1CNCC[C@H](N)C(=O)O | 17.2 | 
Nc1nc(=O)n([C@H]2C[C@H](O)[C@@H](CO)O2)cc1CNC[C@H]1O[C@@H](n2cnc3c(N)ncnc32)[C@H](O)[C@@H]1O | 0.4 | 
Nc1ncn(C2C[C@H](O)[C@@H](CO)O2)c(=O)n1 (stereo not given in full) |  | inhibition [10]: Active
NC1=NC(=O)N([C@H]2C[C@H](O)[C@@H](CO)O2)CN1CCCCCN(CC[C@H](N)C(=O)O)C[C@H]1O[C@@H](n2cnc3c(N)ncnc32)[C@H](O)[C@@H]1O | 19.6 | 
Nc1nc(=O)n([C@H]2C[C@H](O)[C@@H](CO)O2)cc1CSCCC[C@H]1O[C@@H](n2cnc3c(N)ncnc32)[C@H](O)[C@@H]1O | 0.9 | 
Nc1nc(=O)n([C@H]2C[C@H](O)[C@@H](CO)O2)cc1CN(CC[C@H](N)C(=O)O)C[C@H]1O[C@@H](n2cnc3c(N)ncnc32)[C@H](O)[C@@H]1O | 8.5 | 
